Key:
human CB2 receptors = molecular target: T1, human CB2 receptors (Homo sapiens, UniProt P34972); test: [3H]CP-55,940 radioligand competition binding assay, CB2; details: for Ki: CHO cell membranes, [3H]CP-55,940 displacement
T1 construct: expressed in transfected cells
Procedure: (§1) Binding assay. The bioassay is carried out using the Perkin Elmer 96-well Top Counter. This bioassay is also known as a competition binding assay and the biological evaluation is to determine the CB receptor binding affinity (Ki) of the screened ligands by displacing [^3H]-CP-55940 (or other radioligands). The brief procedure is given below.
(§2) Perkin Elmer 96-well TopCounter is used at PMLSC and in our laboratory to determine the CB receptor binding affinity (Ki) of the in-silico screened ligands by displacing [^3H]-CP-55,940 (or other radioligands). In competition binding experiments, the tested compound dilutions are carried out in triplicate in TME buffer (25 mM Tris, 5 mM MgCl2, 1 mM EDTA) containing 0.1% (w/v) fatty acid free bovine serum albumin (BSA), pH 7.4. Various concentrations of the tested compound are added in the same volume to 0.5 nM [^3H]CP-55,940. TME buffer and cell membrane preparations expressing CB receptors (2.5 μg per well) are added to a final volume of 200 μL. For the saturation binding experiments, varying concentrations of [^3H]CP-55,940 (0.05-1.5 nM) with or without 2 μM of unlabeled ligands (CP-55,940 or WIN-55,212-2) are incubated with the receptor membrane preparations to determine Kd and nonspecific binding. After the binding suspensions are incubated at 30° C. for 1 hr, the reaction is terminated by rapid filtration through microfiltration plates coated with 0.5% polyethylenimine (Unifilter GF/B filterplate, PerkinElmer) followed by 5 washes with ice cold TME buffer containing 0.5% BSA on a Packard Filtermate Harvester (PerkinElmer). The plates are then dried overnight and 30 μl MicroScint 0 scintillation cocktail are added to each well of the dried filter plates. Then the bound radioactivity is counted using a Perkin Elmer 96-well TopCounter. The Ki is calculated by using nonlinear regression analysis (Prism 5; GraphPad Software Inc., San Diego, Calif.), with the Kd values for [^3H]CP-55,940 determined from saturation binding experiments. This assay is used for determining binding affinity parameters (Ki) of ligand-receptor interactions for the CB receptor.
(§3) The affinities of the synthesized ligands were determined in radioligand binding studies at human CB1 and CB2 receptors using [3H](—)-cis-3-[2-hydroxy-4-(1,1 dimethylheptyl)phenyl]-trans-4-(3-hydroxypropyl) cyclohexanol (CP55,940) as a CB receptor radioligand. As a source for human CB1 and CB2 receptors, membrane preparations of Chinese hamster ovary (CHO) cells stably expressing the respective receptor subtype were utilized (50 μg of protein/vial). CB2 selective ligand SR144528 (CB2 inverse agonist) and CB1 ligand SR141716 (CB1 inverse agonist) were used as positive controls, respectively, along with the tested compounds in bioassays experiments. Only compounds with high CB2 receptor binding potency was chosen to carry out the CB1 binding assay. CB ligand competition binding assay was carried out as described previously in Gertsch, J., et al., Beta-caryophyllene is a dietary cannabinoid. Proc Natl Acad Sci USA 2008, 105 (26), 9099-104. Briefly, non-radioactive (or cold) ligands (synthesized derivatives and reference ligands) were diluted in a binding buffer (50 mM Tris-HCl (pH 7.4), 5 mM MgC12, 2.5 mM EGTA, and 0.1% (w/v) fatty acid free BSA), supplemented with 10% dimethyl sulfoxide and 0.4% methyl cellulose. Each assay plate well contained a total of 200 μL of reaction mixture composed of 5 μg of CB1 (or 2.5 μg CB2) membrane protein, labeled [3H]-CP-55,940 ligand at a final concentration of 2.5 nM, and the unlabeled ligand at its varying dilutions as stated above. Plates were incubated at 30° C. for 1 hour with gentle shaking.
(§4) The reaction was terminated by rapid filtration through Unifilter GF/B filter plates using a Unifilter Cell Harvester (PerkinElmer). After the plate was allowed to dry overnight, 30 μL MicroScint-0 cocktail (PerkinElmer) was added to each well, and the radioactivity was counted using a PerkinElmer TopCounter. […]

human CB1 receptors = molecular target: T2, human CB1 receptors (Homo sapiens, UniProt P21554); test: [3H]CP-55,940 radioligand competition binding assay, CB1; details: CHO cell membranes, [3H]CP-55,940 displacement
T2 construct: expressed in transfected cells
Procedure: as §1, §2, §3, §4

T2 sequence (P21554 whole entry): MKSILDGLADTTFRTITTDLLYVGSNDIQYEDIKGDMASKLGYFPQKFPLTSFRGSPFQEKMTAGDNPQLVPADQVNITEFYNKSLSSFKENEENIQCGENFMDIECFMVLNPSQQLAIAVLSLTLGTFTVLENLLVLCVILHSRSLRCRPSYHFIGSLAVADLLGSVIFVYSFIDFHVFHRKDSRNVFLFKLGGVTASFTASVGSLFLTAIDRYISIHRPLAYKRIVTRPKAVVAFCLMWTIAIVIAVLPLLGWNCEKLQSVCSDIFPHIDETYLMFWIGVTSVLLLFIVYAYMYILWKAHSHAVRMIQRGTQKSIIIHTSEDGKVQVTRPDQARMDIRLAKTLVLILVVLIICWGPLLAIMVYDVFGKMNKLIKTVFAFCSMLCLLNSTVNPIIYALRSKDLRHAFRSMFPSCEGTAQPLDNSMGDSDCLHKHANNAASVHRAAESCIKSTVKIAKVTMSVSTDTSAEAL
T1 sequence (P34972 whole entry): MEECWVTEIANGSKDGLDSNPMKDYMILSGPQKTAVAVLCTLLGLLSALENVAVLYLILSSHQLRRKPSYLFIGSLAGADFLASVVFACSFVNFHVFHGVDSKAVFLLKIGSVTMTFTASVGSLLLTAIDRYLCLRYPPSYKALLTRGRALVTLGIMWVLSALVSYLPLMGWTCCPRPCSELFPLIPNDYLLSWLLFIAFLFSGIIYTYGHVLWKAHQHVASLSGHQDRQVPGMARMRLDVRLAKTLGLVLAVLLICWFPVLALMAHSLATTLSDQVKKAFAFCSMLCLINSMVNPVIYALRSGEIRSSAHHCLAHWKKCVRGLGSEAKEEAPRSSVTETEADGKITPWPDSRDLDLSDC

CCN(CC)c1ccc(CN(Cc2cc(OC)c(OC)c(OC)c2)S(=O)(=O)c2ccccc2)cc1 [Compound 7, N-(4-(diethylamino)benzyl)-N-(3,4,5-trimethoxybenzyl)benzenesulfonamide]
SI: selectivity index for CB2, calculated as Ki(CB1)/Ki(CB2) ratio (human CB2 receptors): 44
Ki (human CB2 receptors): 0.453 µM
Ki (human CB1 receptors): > 20 µM
Ki (CB1) (human CB1 receptors): no affinity

CCN(CC)c1ccc(CN(Cc2cc(OC)c(OC)c(OC)c2)S(=O)(=O)c2ccc3ccccc3c2)cc1 [Compound 9, N-(4-(diethylamino)benzyl)-N-(3,4,5-trimethoxybenzyl)naphthalene-2-sulfonamide]
Ki (human CB2 receptors): 0.239 µM
Ki (human CB1 receptors): 0.071 µM

4-(((benzo[d][1,3]dioxol-5-ylmethyl)(quinoxalin-2-ylmethyl)amino)methyl)-N,N-diethylaniline [Compound 31]
SI: selectivity index for CB2, calculated as Ki(CB1)/Ki(CB2) ratio (human CB2 receptors): 2
Ki (human CB2 receptors): 0.775 µM
Ki (human CB1 receptors): 1.27 µM

CCN(CC)c1ccc(CN(Cc2ccc3c(c2)OCO3)C(=O)c2cccs2)cc1 [Compound 32, N-(benzo[d][1,3]dioxol-5-ylmethyl)-N-(4-(diethylamino)benzyl)thiophene-2-carboxamide]
SI: selectivity index for CB2, calculated as Ki(CB1)/Ki(CB2) ratio (human CB2 receptors): 2
Ki (human CB2 receptors): 0.574 µM
Ki (human CB1 receptors): 0.727 µM

CCCCCN(Cc1ccc(N(CC)CC)cc1)S(=O)(=O)/C=C/c1ccccc1 [Compound 37, (E)-N-(4-(diethylamino)benzyl)-N-pentyl-2-phenylethene-1-sulfonamide]
SI: selectivity index for CB2, calculated as Ki(CB1)/Ki(CB2) ratio (human CB2 receptors): 10
Ki (human CB2 receptors): 0.515 µM
Ki (human CB1 receptors): 5.24 µM

CCN(CC)c1ccc(CN(Cc2cc(OC)c(OC)c(OC)c2)S(=O)(=O)c2ccc(OC)cc2)cc1 [Compound 4, N-(4-(diethylamino)benzyl)-4-methoxy-N-(3,4,5-trimethoxybenzyl)benzenesulfonamide]
SI: selectivity index for CB2, calculated as Ki(CB1)/Ki(CB2) ratio (human CB2 receptors): 50
Ki (human CB2 receptors): 0.41 µM
Ki (human CB1 receptors): > 20 µM
Ki (CB1) (human CB1 receptors): no CB1 binding affinity

CCN(CC)c1ccc(CN(Cc2cc(OC)c(OC)c(OC)c2)S(=O)(=O)c2ccc(C)cc2)cc1 [Compound 6, N-(4-(diethylamino)benzyl)-4-methyl-N-(3,4,5-trimethoxybenzyl)benzenesulfonamide]
SI: selectivity index for CB2, calculated as Ki(CB1)/Ki(CB2) ratio (human CB2 receptors): 2
Ki (human CB2 receptors): 0.387 µM
Ki (human CB1 receptors): 0.774 µM

CCN(CC)c1ccc(CN(Cc2cc(OC)c(OC)c(OC)c2)S(=O)(=O)c2ccc(C(C)C)cc2)cc1 [Compound 8, N-(4-(diethylamino)benzyl)-4-isopropyl-N-(3,4,5-trimethoxybenzyl)benzenesulfonamide]
Ki (human CB2 receptors): 0.23 µM
Ki (human CB1 receptors): 0.122 µM

CCCCCN(Cc1ccc(N(CC)CC)cc1)S(=O)(=O)c1ccc(C=O)cc1 [Compound 38, N-(4-(diethylamino)benzyl)-4-formyl-N-pentylbenzenesulfonamide]
SI: selectivity index for CB2, calculated as Ki(CB1)/Ki(CB2) ratio (human CB2 receptors): 3
Ki (human CB2 receptors): 0.657 µM
Ki (human CB1 receptors): 1.79 µM

CCN(CC)c1ccc(CN(Cc2ccc3c(c2)OCO3)S(=O)(=O)/C=C/c2ccccc2)cc1 [Compound 29, (E)-N-(benzo[d][1,3]dioxol-5-ylmethyl)-N-(4-(diethylamino)benzyl)-2-phenylethene-1-sulfonamide]
SI: selectivity index for CB2, calculated as Ki(CB1)/Ki(CB2) ratio (human CB2 receptors): 3
Ki (human CB2 receptors): 0.381 µM
Ki (human CB1 receptors): 1.16 µM

CCN(CC)c1ccc(CN(Cc2cccnc2)S(=O)(=O)c2ccc3ccccc3c2)cc1 [Compound 24, N-(4-(diethylamino)benzyl)-N-(pyridin-3-ylmethyl)naphthalene-2-sulfonamide]
SI: selectivity index for CB2, calculated as Ki(CB1)/Ki(CB2) ratio (human CB2 receptors): 14
Ki (human CB2 receptors): 0.866 µM
Ki (human CB1 receptors): 12 µM

CCN(CC)c1ccc(CN(Cc2cccnc2)S(=O)(=O)/C=C/c2ccccc2)cc1 [Compound 23, (E)-N-(4-(diethylamino)benzyl)-2-phenyl-N-(pyridin-3-ylmethyl)ethene-1-sulfonamide]
SI: selectivity index for CB2, calculated as Ki(CB1)/Ki(CB2) ratio (human CB2 receptors): 6
Ki (human CB2 receptors): 0.899 µM
Ki (human CB1 receptors): 5.46 µM

CCN(CC)c1ccc(CN(Cc2cccnc2)S(=O)(=O)c2ccc(-c3ccccc3)cc2)cc1 [Compound 25, N-(4-(diethylamino)benzyl)-N-(pyridin-3-ylmethyl)-[1,1′-biphenyl]-4-sulfonamide]
SI: selectivity index for CB2, calculated as Ki(CB1)/Ki(CB2) ratio (human CB2 receptors): 21
Ki (human CB2 receptors): 0.946 µM
Ki (human CB1 receptors): > 20 µM

CCN(CC)c1ccc(CN(Cc2ccc3c(c2)OCO3)S(=O)(=O)c2ccc(C=O)cc2)cc1 [Compound 30, N-(benzo[d][1,3]dioxol-5-ylmethyl)-N-(4-(diethylamino)benzyl)-4-formylbenzenesulfonamide]
SI: selectivity index for CB2, calculated as Ki(CB1)/Ki(CB2) ratio (human CB2 receptors): 1
Ki (human CB2 receptors): 1.87 µM
Ki (human CB1 receptors): 2.74 µM

CCN(CC)c1ccc(CN(Cc2cc(OC)c(OC)c(OC)c2)S(=O)(=O)c2cccc(C)c2)cc1 [Compound 5, N-(4-(diethylamino)benzyl)-3-methyl-N-(3,4,5-trimethoxybenzyl)benzenesulfonamide]
SI: selectivity index for CB2, calculated as Ki(CB1)/Ki(CB2) ratio (human CB2 receptors): 3
Ki (human CB2 receptors): 0.291 µM
Ki (human CB1 receptors): 0.732 µM

CCN(CC)c1ccc(CN(Cc2cc(OC)c(OC)c(OC)c2)S(=O)(=O)c2ccccc2C)cc1 [Compound 14, N-(4-(diethylamino)benzyl)-2-methyl-N-(3,4,5-trimethoxybenzyl)benzenesulfonamide]
SI: selectivity index for CB2, calculated as Ki(CB1)/Ki(CB2) ratio (human CB2 receptors): 2
Ki (human CB2 receptors): 0.157 µM
Ki (human CB1 receptors): 0.18 µM

CCN(CC)c1ccc(CN(Cc2cc(OC)c(OC)c(OC)c2)S(=O)(=O)c2ccc(-c3ccccc3)cc2)cc1 [Compound 10, N-(4-(diethylamino)benzyl)-N-(3,4,5-trimethoxybenzyl)-[1,1′-biphenyl]-4-sulfonamide]
SI: selectivity index for CB2, calculated as Ki(CB1)/Ki(CB2) ratio (human CB2 receptors): 62
Ki (human CB2 receptors): 0.322 µM
Ki (human CB1 receptors): > 20 µM
